“Also recorded” adds a separate entry of the source.
Tests used:
[1] = test system: IGF-signaling impaired zebrafish model; settings: cited from earlier work
CA1 neurons = test: mEPSC recordings from shRNA-expressing CA1 neurons in hippocampal organotypic slice cultures; type: cell-based, mouse; settings: Shank3 knock down neurons; overnight 4 μg/ml SC79
Procedure: Organotypice slices and cell cultures were transferred from growth medium to an interface chamber containing ACSF equilibrated with 95% O2/5% CO2 containing the following (in mM): 124 NaCl, 2.7 KCl, 2 CaCl2, 1.3 MgCl2, 26 NaHCO3, 0.4 NaH2PO4, 18 glucose, 4 ascorbate. Recordings were performed with ACSF in a recording chamber at a temperature of 35° C. at a perfusion rate of 1-2 ml/min. Neurons were visually identified with infrared video microscopy using an upright microscope equipped with a 40× objective (Olympus, Tokyo, Japan). Patch electrodes (3-5 MΩ) were pulled from borosilicate glass tubing. […]
Whole cell patch-clamp recordings were excluded if the access resistance exceeded 13 MΩ and changed more than 20% during the recordings. Data were recorded with a MultiClamp 700B (Molecular Devices) amplifier, filtered at 0.2 kHz, and digitised at 10 kHz. Data were acquired and analysed with Clampex 10.0, Clampfit 10.0 (Molecular Devices) and the Mini Analysis Program (Synaptosoft, Decatur, Ga.). […]
Given that SC79 and TG003 were able to recover spine numbers in Shank3 knock down neurons, the reinstatement of synaptic transmission was examined next. First, miniature excitatory postsynaptic currents (mEPSCs) were recorded from shRNA-expressing CA1 neurons in hippocampal organotypic slice cultures. […]

Shank3^ΔC/ΔC mice [2] = test: Spontaneous self-grooming; type: in vivo, mouse; settings: 10 minute interval; TG003-treated Shank3^ΔC/ΔC mice
Procedure: To monitor spontaneous self-grooming, mice were placed in a clean cage (identical to the home cage), with minimal bedding to discourage digging, which was then placed in the sound-proof box for video monitoring. Animals were habituated in the new cage for 10 minutes before self-grooming was monitored during another 10 minutes. Cumulative grooming time was reported for this second 10 minute period.

Shank3^ΔC/ΔC mice [3] = test: Three-chamber social interaction task; type: in vivo, mouse
Procedure: The three-chamber social interaction task was performed in a three-chambered arena with transparent walls and retractable doorways to allow mice access to flanking chambers (FIG. 9F). During testing, the arena was placed in a lighted, sound-proof box with no side-biasing features. A video camera was mounted above for recording. The test comprised three phases with different stimuli placed in the side chambers successively between phases. Each stimulus (social or inanimate) was placed within a small wire cage for immobilization while test mice were allowed to freely investigate the stimuli. In Phase 1, identical inanimate objects (inverted ceramic cups with blue stripe) were placed in both side chambers. An intruder mouse (same strain) was introduced in one side chamber as the social stimulus in Phase 2. In Phase 3, a second intruder mouse was placed in the other side chamber (novel social stimulus). Each phase consisted of a 7.5 minute exploration period with 5 minutes in the home cage between phases. The test animal was placed in the center chamber to start the task. Animals were habituated to the arena 24 hours before testing during which time they were allowed to freely explore the entire arena, with empty wire cages in side chambers, for 10 minutes. Social interaction time for a given phase was scored by cumulative social/investigative behaviors, in particular sniffing and actively seeking a stimulus. Proximity to a stimulus without investigation was not counted. Preference index was calculated by subtracting interaction time with one stimulus from that of the other stimulus in the same testing phase then dividing this by the sum of interaction times for both stimuli and converting this to a percentage. Positive scores indicate a preference for the first stimulus in the equation. […]

CCOC(=O)C1=C(N)Oc2ccc(Cl)cc2C1C(C#N)C(=O)OCC (stereo not shown) [SC79]
habituation learning [1]: restore habituation learning
mEPSC frequency (CA1 neurons): completely restored mEPSC frequency to control levels

CCN1/C(=C/C(C)=O)Sc2ccc(OC)cc21 [TG003, (Z)-1-(3-ethyl-5-methoxy-2,3-dihydrobenzothiazol-2-ylidene)propan-2-one]
self-grooming (Shank3^ΔC/ΔC mice [2]): significantly decreased self-grooming although not to wild type frequency
total distance travelled (Shank3^ΔC/ΔC mice [3]; phase 1 or phase 2, TG003-treated mice): no change from wild type in total distance travelled
preference for social interaction (S1 versus O1 interaction times) (Shank3^ΔC/ΔC mice [3]; phase 2, 30 mg/kg TG003 i.p. 6-8 hours before testing, 30 mg/kg): recovered normal preference for social interaction; also recorded: corrected
social investigation after delay (Shank3^ΔC/ΔC mice [3]; phase 2, 72 hours after TG003 treatment): maintained 72 hours after treatment
time spent in S1 chamber (Shank3^ΔC/ΔC mice [3]; phase 2, TG003-treated Shank3^ΔC/ΔC mice): restores the time spent in the Si chamber to wild type levels

Source: patent US20180296537A1, “METHODS AND COMPOSITIONS FOR DIAGNOSING, TREATING, AND MONITORING TREATMENT OF SHANK3 DEFICIENCY ASSOCIATED DISORDERS” (Novartis AG, priority 2015, published 2018)
